Series [1] in a line: Stability in PBS, pH 7.4. Conditions: for Stability PBS, pH 7.4 % left after 6 hrs: pH 7.4, after 6 hrs; for half-life: pH 7.4, read-out: Stability PBS, pH 7.4 t1/2 (converted). It counts as physicochemical.
Series [2] can be described thus: Stability in Mueller Hinton Broth. As to conditions: for half-life: read-out: Stability Mueller Hinton Broth t1/2 (converted). It counts as physicochemical.
Series [3] in a line: Stability in Mouse Plasma. It counts as in vitro ADME. As to conditions: for half-life: read-out: Stability Mouse Plasma t1/2.
The nature of series [4]: Stability in Human Plasma. It counts as in vitro ADME. Conditions: for half-life: read-out: Stability Human Plasma t1/2.
The subject of series [5] is S. aureus. Kind of series: MIC susceptibility testing (modified NCCLS). Conditions: Staphylococcus aureus. Type of series: cell-based. As to the method: (§1) The NCCLS (National Committee for Clinical Laboratory Standards), method to determine MIC's of antimicrobial compounds is modified for high-throughput screening. All stocks of tested compounds are prepared in either water or in DMSO depending on solubility. At the highest concentration, DMSO content should not exceed 0.5%. Briefly, twenty 2-fold serial dilutions of test compounds from the highest concentration is made in a 384-well microtiter plate. Each well is inoculated with testing bacteria in broth to a final concentration of approximately 1-1.5×10^6 cells/ml. Bacterial growth is determined by the increase of optical density at 600 nm using a microplate reader (Tecan SpectraFluor Plus).

The target in series [6] is PDF (Escherichia coli, UniProt P0A6K3). Conditions: Wei et al. (2000); read-out: Ki (competitive PDF inhibitor); cited from earlier work.
PDF, sequence (P0A6K3 whole entry): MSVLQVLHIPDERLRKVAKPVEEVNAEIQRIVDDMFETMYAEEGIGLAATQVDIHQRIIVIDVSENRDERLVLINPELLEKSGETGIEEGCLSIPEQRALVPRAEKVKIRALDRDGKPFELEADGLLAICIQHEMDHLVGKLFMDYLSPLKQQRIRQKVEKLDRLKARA
Series [7] has as its system E. coli. The experiment in a line: MIC susceptibility testing (modified NCCLS). Type of series: cell-based. As to conditions: Escherichia coli, ATCC25922; Table 6, E. coli ATCC 25922; read-out: MIC. On the procedure:
as §1

Series [8] concerns E. faecalis. The experiment in a line: MIC susceptibility testing (modified NCCLS). Type of series: cell-based. Conditions: Enterococcus faecalis, ATCC29212; Table 6, E. faecalis ATCC 29212; read-out: MIC. On the procedure:
as §1

Series [9] deals with P. aeruginosa. The experiment in a line: MIC susceptibility testing (modified NCCLS). It counts as cell-based. As to conditions: Pseudomonas aeruginosa, ATCC27853; Table 6, P. aeruginosa ATCC 27853; read-out: MIC. As to the method:
The NCCLS (National Committee for Clinical Laboratory Standards), method to determine MIC's of antimicrobial compounds is modified for high-throughput screening. All stocks of tested compounds are prepared in either water or in DMSO depending on solubility. At the highest concentration, DMSO content should not exceed 0.5%. Briefly, twenty 2-fold serial dilutions of test compounds from the highest concentration is made in a 384-well microtiter plate. […] Bacterial growth is determined by the increase of optical density at 600 nm using a microplate reader (Tecan SpectraFluor Plus).

≈ marks a conversion by molar mass, not a printed value. Where two headings read alike, the source gives them in different places.

For `CSCCC(NC=O)C(=O)NC(CC(C)C)C(=O)Oc1c(Br)cc(CO)cc1-c1ccco1` (centres unmarked) [NB3177, 2-(2-Formylamino-4-methylsulfanyl-butyrylamino)-4-methyl-pentanoic Acid 2-bromo-6furan-2-yl-4-hydroxymethyl-phenyl Ester], the “Stability PBS, pH 7.4 % left after 6 hrs” value in series [1] is 95%. The half-life is greater than 12 h in series [1], greater than 12 h in series [2], greater than 0.333 h in [3] and 0.533 h in series [4]. In series [2], the “Stability Mueller Hinton Broth % left after 6 hrs” value stood at 89%. In addition, the “Stability Mouse Plasma % left after 10 min” value (“Stability Mouse Plasma % left” below) in [3] is on record as 88%.

With `CSCCC(NC=O)C(=O)NC(CC(C)C)C(=O)Oc1c(C)cc(CO)cc1C` (centres unmarked) [NB3165, 2-(2-formylamino-4-methylsulfanyl-butyrylamino)-4-methyl-pentanoic Acid 4-hydroxymethyl-2,6-dimethyl-phenyl Ester], in series [1], the “Stability PBS, pH 7.4 % left after 6 hrs” value was 85% and the half-life was greater than 12 h. In series [2], the “Stability Mueller Hinton Broth % left after 6 hrs” value amounted to 95% and the half-life was greater than 12 h. Also, in series [3], the “Stability Mouse Plasma % left” value was found to be 94% and the half-life is greater than 0.333 h. Moreover, in series [4], the “Stability Human Plasma % left after 120 min” value is given as 94% and the half-life is greater than 2 h.

`CSCCC(NC=O)C(=O)NC(CC(C)C)C(=O)Oc1c(-c2ccccc2)cc(CO)cc1-c1ccccc1` (centres unmarked) [NB3145, 2-(2-formylamino-4-methylsulfanyl-butyrylamino)-4-methyl-pentanoic Acid 5′-hydroxymethyl-[1,1′;3′,1″]terphenyl-2′-yl Ester]: in series [1], the “Stability PBS, pH 7.4 % left after 6 hrs” value was found to be 99% and the half-life was greater than 12 h. In [2], the “Stability Mueller Hinton Broth % left after 6 hrs” value was determined as 99% and the half-life is greater than 12 h. Also, in series [3], the “Stability Mouse Plasma % left” value stood at 94% and the half-life is greater than 0.333 h. In addition, in series [4], the “Stability Human Plasma % left after 120 min” value came out at 94% and the half-life was greater than 2 h.

Broadly, the MIC is the least concentration at which growth counts as inhibited. With `Oc1cc(Cl)ccc1Oc1ccc(Cl)cc1Cl` [Triclosan, triclosan, reference compound], the MIC in [5] (ATCC 11632 / MSSA) was determined as 1.95 ng/mL (≈ 0.00675 µM); in [5] (ATCC 13301 / MSSA), 0.488 ng/mL (≈ 0.00169 µM); in series [5] (ATCC 14154 / MSSA) it was 1.95 ng/mL (≈ 0.00675 µM); in [5] (ATCC 33591 / MSSA) it was 7.81 ng/mL (≈ 0.027 µM); in series [5] (ATCC 33592 / MSSA), 3.91 ng/mL (≈ 0.0135 µM); in series [5] (ATCC 33593 / MSSA) it was 0.977 ng/mL (≈ 0.00337 µM). Also, the MIC in series [5] (ATCC 43300 / MSSA) was 1.95 ng/mL (≈ 0.00675 µM); in series [5] (ATCC 700260 / MSSA) it was 0.244 ng/mL (≈ 0.000843 µM); in [5] (ATCC 700698 / MSSA) it was 3.91 ng/mL (≈ 0.0135 µM); in series [5] (ATCC 700699 / MSSA) it was no less than 4000 ng/mL; in series [5] (ATCC 700787 / MSSA) it was 1.95 ng/mL (≈ 0.00675 µM); in series [5] (ATCC 700788 / MSSA), 31.2 ng/mL (≈ 0.108 µM). The compound further returned a minimum inhibitory concentration (MIC) in series [5] (ATCC 700789 / MSSA) of 15.6 ng/mL (≈ 0.054 µM).

What is called Ki is the dissociation constant of the complex between target and ligand, obtained from inhibition or displacement. Take `CCCCC(CS)C(=O)NC(CCCNC(=N)N)C(=O)Nc1ccc2ccccc2c1` (centres unmarked) [optimal inhibitor]: the inhibitory constant (Ki) in series [6] was 15 nM.

For the compound `CCn1cc(C(=O)O)c(=O)c2cc(F)c(N3CCNCC3)cc21` [Norfloxacin, norfloxacin, reference compound], the minimum inhibitory concentration (MIC) in series [7] stood at 15.6 ng/mL (≈ 0.0489 µM); in series [8], 1000 ng/mL (≈ 3.13 µM); in series [5] (ATCC29213, Table 6, S. aureus (MS) ATCC 29213, read-out: MIC) it was 500 ng/mL (≈ 1.57 µM); in series [5] (ATCC33591, Table 6, S. aureus (MR) ATCC 33591, read-out: MIC), 1000 ng/mL (≈ 3.13 µM); in [9], 500 ng/mL (≈ 1.57 µM).

For `COc1cc(CO)cc(Br)c1OC(=O)C(CC(C)C)NC(=O)C(CCSC)NC=O` (centres unmarked) [NB3162, 2-(2-formylamino-4-methylsulfanyl-butyrylamino)-4-methyl-pentanoic Acid 2-bromo-4-hydroxymethyl-6-methoxy-phenyl Ester], the “Stability PBS, pH 7.4 % left after 6 hrs” value in [1] came to 98%. Further, the half-life was greater than 12 h in series [1], greater than 12 h in [2], 0.148 h in series [3] and 0.177 h in series [4]. In series [2], the “Stability Mueller Hinton Broth % left after 6 hrs” value is recorded as 91%.

Turning to `CSCCC(NC=O)C(=O)NC(CC(C)C)C(=O)Oc1c(Br)cc(CO)cc1Br` (centres unmarked) [NB3144, 2-(2-formylamino-4-methylsulfanyl-butyrylamino)-4-methyl-pentanoic Acid 2,6-dibromo-hydroxymethyl-phenyl Ester], the half-life in [1] is 3.3 h; in [2] it was 2.9 h.

Source of the values: patent US20050096254A1, “Peptide deformylase activated prodrugs” (priority 2002, published 2005).
